Data reported in PubChem BioAssay AID2060902 (Molecular Pharmacology Branch, DTP, NCI, 2025).

Test system: 485368-065-R3-J5-PDC spheroids with HUVEC/MSC, viability
Test: Anticancer human tumor 485368-065-R3-J5-PDC patient-derived pancreatic carcinoma cell line growth inhibition [RAS]
Conditions: for IC50: curve of first compound; for viability, T/C: stronger effect = lower value
Outline: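 Tumour cells grown as complex spheroids with HUVEC endothelial cells and mesenchymal stem cells, treated with RAS pathway inhibitor combinations. Each agent spans half-log steps from near clinical Cmax, or 10 microM where Cmax is unknown.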
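Further: spheroids exposed to agents for seven days before readout.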

`C=CC(=O)N1CCN(c2nc(OCC3CCCN3C)nc3c(F)c(-c4nc(N)cc(C)c4C(F)(F)F)c(Cl)cc23)C(C)C1` (configuration not stated) + CCn1c(-c2cccnc2C(C)OC)c2c3cc(ccc31)N1CCOC(CC(NC(=O)C(C(C)C)N(C)C(=O)C3(F)CCN(C(=O)C#CC(C)(C)N(C)C)CC3)C(=O)N3CCCC(N3)C(=O)OCC(C)(C)C2)C1 was tested, and the IC50 (second compound 0.000949 µM) was over 1 µM, the IC50 (second compound 0.003 µM) was over 1 µM and the IC50 (second compound 0.00949 µM) was over 1 µM. The IC50 (second compound 0.03 µM) was over 1 µM, the IC50 (second compound 0.0949 µM) was over 1 µM and the IC50 (second compound 0.3 µM) was over 1 µM. For the same compound, the viability, T/C (second compound 0.000949 µM, first compound 0.00316 µM) was 113%, the viability, T/C (second compound 0.000949 µM, first compound 0.01 µM) was 96% and the viability, T/C (second compound 0.000949 µM, first compound 0.0316 µM) was 102%. It also gave a viability, T/C (second compound 0.000949 µM, first compound 0.1 µM) of 99.8%, a viability, T/C (second compound 0.000949 µM, first compound 0.316 µM) of 105% and a viability, T/C (second compound 0.000949 µM, first compound 1 µM) of 97.5%. For the same compound, the viability, T/C (second compound 0.003 µM, first compound 0.00316 µM) was 110%, the viability, T/C (second compound 0.003 µM, first compound 0.01 µM) was 99.5% and the viability, T/C (second compound 0.003 µM, first compound 0.0316 µM) was 107%. For the same compound, the viability, T/C (second compound 0.003 µM, first compound 0.1 µM) was 101%, the viability, T/C (second compound 0.003 µM, first compound 0.316 µM) was 119% and the viability, T/C (second compound 0.003 µM, first compound 1 µM) was 107%. It also gave a viability, T/C (second compound 0.00949 µM, first compound 0.00316 µM) of 95.9%, a viability, T/C (second compound 0.00949 µM, first compound 0.01 µM) of 104% and a viability, T/C (second compound 0.00949 µM, first compound 0.0316 µM) of 97.1%. It also gave a viability, T/C (second compound 0.00949 µM, first compound 0.1 µM) of 103%, a viability, T/C (second compound 0.00949 µM, first compound 0.316 µM) of 110% and a viability, T/C (second compound 0.00949 µM, first compound 1 µM) of 104%. For the same compound, the viability, T/C (second compound 0.03 µM, first compound 0.00316 µM) was 87.6%, the viability, T/C (second compound 0.03 µM, first compound 0.01 µM) was 99.6% and the viability, T/C (second compound 0.03 µM, first compound 0.0316 µM) was 97.3%. It also gave a viability, T/C (second compound 0.03 µM, first compound 0.1 µM) of 106%, a viability, T/C (second compound 0.03 µM, first compound 0.316 µM) of 107% and a viability, T/C (second compound 0.03 µM, first compound 1 µM) of 108%. For the same compound, the viability, T/C (second compound 0.0949 µM, first compound 0.00316 µM) was 99.4%, the viability, T/C (second compound 0.0949 µM, first compound 0.01 µM) was 99.8% and the viability, T/C (second compound 0.0949 µM, first compound 0.0316 µM) was 108%. It also gave a viability, T/C (second compound 0.0949 µM, first compound 0.1 µM) of 93.9%, a viability, T/C (second compound 0.0949 µM, first compound 0.316 µM) of 115% and a viability, T/C (second compound 0.0949 µM, first compound 1 µM) of 93.1%. The viability, T/C (second compound 0.3 µM, first compound 0.00316 µM) was 96.2%, the viability, T/C (second compound 0.3 µM, first compound 0.01 µM) was 104% and the viability, T/C (second compound 0.3 µM, first compound 0.0316 µM) was 95.6%. It also gave a viability, T/C (second compound 0.3 µM, first compound 0.1 µM) of 106%, a viability, T/C (second compound 0.3 µM, first compound 0.316 µM) of 105% and a viability, T/C (second compound 0.3 µM, first compound 1 µM) of 94.8%.
